Biological target: T1, mAChR M1 (UniProt P11229)
T1 sequence (P11229 1-460): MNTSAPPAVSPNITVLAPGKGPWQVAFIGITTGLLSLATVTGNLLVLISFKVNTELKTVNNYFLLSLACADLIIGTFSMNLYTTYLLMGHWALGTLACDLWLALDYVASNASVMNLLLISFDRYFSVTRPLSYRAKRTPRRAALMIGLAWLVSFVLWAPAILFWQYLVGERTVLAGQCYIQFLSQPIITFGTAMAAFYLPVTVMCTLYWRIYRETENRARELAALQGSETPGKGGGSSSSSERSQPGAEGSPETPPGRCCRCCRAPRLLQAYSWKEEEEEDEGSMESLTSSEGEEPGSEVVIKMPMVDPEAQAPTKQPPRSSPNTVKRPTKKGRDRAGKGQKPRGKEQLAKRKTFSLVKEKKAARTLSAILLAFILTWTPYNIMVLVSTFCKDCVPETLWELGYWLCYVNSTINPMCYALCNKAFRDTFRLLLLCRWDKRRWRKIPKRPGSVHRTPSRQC
Test: In vitro cellular calcium flux assay, positive allosteric modulator mode, mAChR M1
Type: cell-based, human
Conditions: PAM mode with EC20 carbachol, BHK cells expressing mAChR M1, Examples 76-80 and 82-89 tested in slightly modified procedure
Description: Baby hamster kidney cells stably expressing human or rat mAChR M1 to M5 were utilised for primary and selectivity profiling activities. mAChR M2 and M4 cell lines also stably expressed the chimeric Gαqi5 G-protein.
Human mAChR M1, M3, M5 and rat M1 cells were grown in low glucose Dulbecco's Modified Eagle's Medium (DMEM) medium plus heat inactivated 10% fetal bovine serum (HI FBS) and 500 μg/ml hygromycin B^1. Human mAChR M2 and M4 cells were maintained as above with^2 the addition of 500 μg/ml G418 to the media. Cells were maintained in culture at 37° C./5% CO2 and passaged twice weekly by treatment with 0.05% Trypsin/EDTA detachment solution, centrifugation (200 g, 5 min) and re-suspension in fresh media. Following cell expansion, cells were cryopreserved at −80° C. by treatment with 0.05% Trypsin/EDTA detachment solution, centrifugation (200 g, 5 min) and re-suspension of the pellet in freezing media (90% HI FBS/10% DMSO^3) at 15E6 cells/ml^4.
Prior to assaying, cells were prepared by thawing at 37° C. in a water bath, centrifugation (200 g, 5 min) and re-suspension of the pellet in fresh media. 15000 cells per well were seeded in black, clear bottomed 384-well Greiner Bio-One plates in plating medium (DMEM/10% HI FBS) and incubated overnight at 37C/5% CO2.
On the day of the assay, media was removed from each well and replaced with 500 assay buffer (HBSS with 20 mM HEPES and 2.5 mM Probenecid) containing the calcium indicator, Calcium 4 (Molecular Devices). Cells were then incubated at 37° C./5% CO2 for 30 min and at room temperature.
Compound preparation was carried out by generation of 11-point, 1 in 3 serial dilution concentration response curves in 100% DMSO. Compound was then diluted 1 in 65^6 with assay buffer (HBSS with 20 mM HEPES and 2.5 mM Probenecid) prior to the addition of 10 ul^7 to the cells using a Tetra fluorometric imaging plate reader (Molecular Devices)^8. Compound driven increases in intracellular calcium flux was measured as an increase in fluorescence (494Ex, 516Em)^9.
Following agonist data acquisition, cells were then incubated for a further 30 min at room temperature before either an EC20 concentration (to measure positive allosteric modulator activity) or an EC80 concentration (to measure antagonism) of carbachol was added using a fluorometric imaging plate reader. Positive allosteric modulator pEC50 values and antagonist pIC50 values for each compound were then determined. […] Data analysis was carried out using a 4 parameter logistic nonlinear regression model with the XLFIT (IDBS) excel add-in^10.
^1-10Examples 76-80 and 82-89 were tested in a slightly modified procedure. The points of modification and the alternate reagents, concentrations or equipment employed in these examples were: ^1200 μg/ml hygromycin B; ^2G418 not added; ^3CELLBANKER 1; ^410E6; ^540 μl; ^61 in 99; ^720 μl; ^8FDSS6000 (Hamamatsu Photonics); ^9(480Ex, 540Em); 10Spotfire (TIBCO).

SMILES | pEC50 for positive allosteric modulation
N#Cc1ccnc2c(C(=O)N[C@H]3CCCC[C@@H]3O)cn(Cc3ccc(C(F)(F)F)cc3)c12 [Example 33, 7-Cyano-N-((1S,2S)-2-hydroxycyclohexyl)-1-(4-(trifluoromethyl)benzyl)-1H-pyrrolo[3,2-b]pyridine-3-carboxamide] | 7.0
O=C(N[C@@H]1CCC(F)(F)C[C@H]1O)c1cn(Cc2ccc(F)cc2)c2cccnc12 (single isomer, unassigned) [Example 35, N-(trans-4,4-Difluoro-2-hydroxycyclohexyl)-1-(4-fluorobenzyl)-1H-pyrrolo[3,2-b]pyridine-3-carboxamide] | 6.1
O=C(N[C@H]1CCCC[C@@H]1O)c1cn(Cc2ccc(F)c(F)c2)c2cccnc12 [Example 94, 1-(3,4-difluorobenzyl)-N-((1S,2S)-2-hydroxycyclohexyl)-1H-pyrrolo[3,2-b]pyridine-3-carboxamide] | 6.6
COc1ccc(Cn2cc(C(=O)N[C@H]3CCOC[C@@H]3O)c3nccc(Cl)c32)cc1 (single isomer, unassigned) [Example 87, 7-Chloro-1-(4-methoxybenzyl)-N-(trans-3-hydroxytetrahydro-2H-pyran-4-yl)-1H-pyrrolo[3,2-b]pyridine-3-carboxamide] | 7.9
O=C(N[C@H]1CCC(F)(F)C[C@H]1O)c1cn(Cc2ccc(F)cc2)c2cccnc12 (single isomer, unassigned) [Example 36, N-(cis-4,4-Difluoro-2-hydroxycyclohexyl)-1-(4-fluorobenzyl)-1H-pyrrolo[3,2-b]pyridine-3-carboxamide] | 6.3
N#Cc1ccc(Cn2cc(C(=O)N[C@H]3CCCC[C@@H]3O)c3nccc(Cl)c32)cn1 [Example 70, 7-Chloro-1-((6-cyanopyridin-3-yl)methyl)-N-((1S,2S)-2-hydroxycyclohexyl)-1H-pyrrolo[3,2-b]pyridine-3-carboxamide] | 7.0
O=C(NC1CCCOC1)c1cn(Cc2ccc(-n3cccn3)cc2)c2cccnc12 (racemic) [Example 49, 1-(4-(1H-Pyrazol-1-yl)benzyl)-N-(tetrahydro-2H-pyran-3-yl)-1H-pyrrolo[3,2-b]pyridine-3-carboxamide] | 5.6
O=C(N[C@H]1CCC[C@@H]1O)c1cn(Cc2ccc(F)cc2)c2cccnc12 (racemic) [Example 27, 1-(4-Fluorobenzyl)-N-(trans-2-hydroxycyclopentyl)-1H-pyrrolo[3,2-b]pyridine-3-carboxamide] | 6.1
O=C(N[C@@H]1CCCC[C@H]1O)c1cn(Cc2ccc(-c3ccc(F)cc3)cc2)c2cccnc12 (racemic) [Example 46, 1-((4′-Fluoro-[1,1′-biphenyl]-4-yl)methyl)-N-(trans-2-hydroxycyclohexyl)-1H-pyrrolo[3,2-b]pyridine-3-carboxamide] | 6.5
Cc1ccnc2c(C(=O)N[C@H]3CCOC[C@@H]3O)cn(Cc3ccc(F)cc3)c12 (single isomer, unassigned) [Example 82, 1-(4-Fluorobenzyl)-N-(trans-3-hydroxytetrahydro-2H-pyran-4-yl)-7-methyl-1H-pyrrolo[3,2-b]pyridine-3-carboxamide] | 7.8
COc1cc(Cn2cc(C(=O)N[C@H]3CCOC[C@@H]3O)c3nccc(C)c32)ccn1 (single isomer, unassigned) [Example 85, N-(trans-3-Hydroxytetrahydro-2H-pyran-4-yl)-1-((2-methoxypyridin-4-yl)methyl)-7-methyl-1H-pyrrolo[3,2-b]pyridine-3-carboxamide] | 7.3
COc1ccc(Cn2cc(C(=O)N[C@H]3CCOC[C@@H]3O)c3nccc(C)c32)cc1F (single isomer, unassigned) [Example 84, 1-(3-Fluoro-4-methoxybenzyl)-N-(trans-3-hydroxytetrahydro-2H-pyran-4-yl)-7-methyl-1H-pyrrolo[3,2-b]pyridine-3-carboxamide] | 7.9
O=C(N[C@H]1CCCC[C@@H]1CO)c1cn(Cc2ccc(F)cc2)c2cccnc12 (racemic) [Example 18, 1-(4-Fluorobenzyl)-N-(trans-2-(hydroxymethyl)cyclohexyl)-1H-pyrrolo[3,2-b]pyridine-3-carboxamide] | 6.1
C[C@H]1COCC[C@@H]1NC(=O)c1cn(Cc2ccc(F)cc2)c2cccnc12 (racemic) [Example 19, 1-(4-Fluorobenzyl)-N-(trans-3-methyltetrahydro-2H-pyran-4-yl)-1H-pyrrolo[3,2-b]pyridine-3-carboxamide] | 6.0
O=C(N[C@@H]1CCOC[C@H]1O)c1cn(Cc2cccc(F)c2)c2c(Cl)ccnc12 (single isomer, unassigned) [Example 86, 7-Chloro-1-(3-fluorobenzyl)-N-(trans-3-hydroxytetrahydro-2H-pyran-4-yl)-1H-pyrrolo[3,2-b]pyridine-3-carboxamide] | 7.6
COc1ccc(Cn2cc(C(=O)N[C@H]3CCOC[C@@H]3O)c3nccc(C)c32)cc1 (single isomer, unassigned) [Example 83, 1-(4-Methoxybenzyl)-N-(trans-3-hydroxytetrahydro-2H-pyran-4-yl)-7-methyl-1H-pyrrolo[3,2-b]pyridine-3-carboxamide] | 8.0
Cn1cnc(-c2ccc(Cn3cc(C(=O)N[C@H]4CCCC[C@@H]4O)c4ncccc43)cc2)c1 [Example 43, N-((1S,2S)-2-Hydroxycyclohexyl)-1-(4-(1-methyl-1H-imidazol-4-yl)benzyl)-1H-pyrrolo[3,2-b]pyridine-3-carboxamide] | 8.0
O=C(N[C@H]1CCCCC[C@@H]1O)c1cn(Cc2ccc(F)cc2)c2cccnc12 (racemic) [Example 28, 1-(4-Fluorobenzyl)-N-(trans-2-hydroxycycloheptyl)-1H-pyrrolo[3,2-b]pyridine-3-carboxamide] | 6.6
N#Cc1ccc2c(n1)c(C(=O)N[C@H]1CCCC[C@@H]1O)cn2Cc1ccc(-n2cccn2)cc1 [Example 41, 1-(4-(1H-Pyrazol-1-yl)benzyl)-5-cyano-N-((1S,2S)-2-hydroxycyclohexyl)-1H-pyrrolo[3,2-b]pyridine-3-carboxamide] | 6.5
C[C@H]1CCCC[C@@H]1NC(=O)c1cn(Cc2ccc(F)cc2)c2cccnc12 (racemic) [Example 20, 1-(4-Fluorobenzyl)-N-(trans-2-methylcyclohexyl)-1H-pyrrolo[3,2-b]pyridine-3-carboxamide] | 6.1

— patent US20150094328A1, “4-Azaindole Derivatives” (Eisai R&D Management Co., Ltd., priority 2013, published 2015)
